Results: US20240099989A1, “AGENT FOR PREVENTING OR IMPROVING PERIPHERAL NEUROPATHY” (KINKI UNIVERSITY, priority 2021, published 2024)

Key:
[1] = test system: Peripheral Neuropathy in a Mouse Caused by Bortezomib; assay type: in vivo, Balb/c mice; settings: 1 mg/kg bortezomib + 100 mg/kg orally daily from Day 6 (therapy); from Day 12 onwards
Source text: (§1) Six to seven-week-old female Balb/c mice were used for the tests. All the mice were acclimated for seven days after arrival. Then, the mice were grouped into the following four groups: a control group, a group receiving bortezomib, a group receiving xylitol, and a group receiving bortezomib and xylitol (a group receiving bortezomib+xylitol). Each group consisted of five mice.
(§2) On Day 8 of acclimation, the mice in the group receiving bortezomib and the group receiving bortezomib+xylitol were intraperitoneally administered with bortezomib at a dose of 1 mg/kg. This day was designated as Day 0 of administration. Thereafter, these mice were intraperitoneally administered with bortezomib at a daily dose of 1 mg/kg on Day 7 and Day 14.
The mice in the group receiving xylitol and the group receiving bortezomib+xylitol were orally administered with xylitol at a dose of 5 mg/kg daily from Day 0.
The mice in the four groups described in (10) of the present example (Example 1) were placed in a cage, and the avoidance response frequency (score) was measured by pressing a filament with a bending force of 0.16 g against the back of the hind paw.
as §1, with “tests as with Example 1.” for “tests.”, “mice. […]” for “mice.”
For the mice in the four groups described in (12) of the present example (Example 2), the avoidance response frequency (score) was measured by pressing a filament with a bending force of 0.16 g against the back of the hind paw. […]
The mice in the four groups described in (10) of the present example (Example 3) were placed in a cage, and the avoidance response frequency (score) was measured by pressing a filament with a bending force of 0.16 g against the back of the hind paw. […]

[2] = test system: Peripheral Neuropathy in a Mouse Caused by Paclitaxel; assay type: in vivo, Balb/c mice; settings: 6 mg/kg paclitaxel + 100 mg/kg orally daily from Day 6 (therapy); from Day 12 onwards
Source text: as §1, with “paclitaxel,” for “bortezomib,”, “paclitaxel” for “bortezomib”, “paclitaxel+xylitol).” for “bortezomib+xylitol).”
as §2, with “receiving paclitaxel” for “receiving bortezomib”, “receiving paclitaxel+xylitol” for “receiving bortezomib+xylitol”, “with paclitaxel” for “with bortezomib”, “of 6” for “of 1”
The mice in the group receiving xylitol and the group receiving paclitaxel+xylitol were orally administered with xylitol at a dose of 5 mg/kg daily from Day 0.
The mice in the four groups described in (4) of the present example (Example 1) were placed in a cage, and the avoidance response frequency (score) was measured by pressing a filament with a bending force of 0.16 g against the back of the hind paw.
as §1, with “tests as with Example 1.” for “tests.”, “paclitaxel,” for “bortezomib,”, “paclitaxel” for “bortezomib”, “paclitaxel+xylitol).” for “bortezomib+xylitol).”, “mice. […]” for “mice.”
For the mice in the four groups described in (6) of the present example (Example 2), the avoidance response frequency (score) was measured by pressing a filament with a bending force of 0.16 g against the back of the hind paw. […]
The mice in the four groups described in (4) of the present example (Example 3) were placed in a cage, and the avoidance response frequency (score) was measured by pressing a filament with a bending force of 0.16 g against the back of the hind paw. […]

SMILES	avoidance response score [1]	avoidance response score [2]
OC[C@H](O)[C@H](O)[C@H](O)[C@@H](O)CO [L-talitol]	maintained a score clearly lower than that of the group receiving bortezomib	maintained a score clearly lower than that of the group receiving paclitaxel
OC[C@@H](O)[C@H](O)CO [D-threitol]	maintained a score clearly lower than that of the group receiving bortezomib	maintained a score clearly lower than that of the group receiving paclitaxel
OC[C@@H](O)[C@H](O)[C@@H](O)CO [xylitol]	maintained a score clearly lower than that of the group receiving bortezomib	maintained a score clearly lower than that of the group receiving paclitaxel
